# Values of other authors in US6214377A (Jenapharm GmbH, priority 1994, dated 2001).
# Columns and labels:
# [1] = peroral administration
# [2] = human body
smiles,measurement,setting,value
"COc1ccc2[nH]cc(CCNC(C)=O)c2c1 [melatonin, N-acetyl-5-methoxy-triptamine]",side effects of unphysiological overdose,[1],"Increased spasmogenic situations, confusion, and sleeplessness"
same,half-life period,[2],about 30 minutes
